{"source": "patent US20100183726A1", "about": "“COMPOSITIONS AND METHODS FOR TREATING CANCER WITH DACARBAZINE NANOEMULSIONS” (priority 2006, published 2010)", "origin": "cited, not measured here", "key": {"melanoma B16F10 cells": {"tested_on": "melanoma B16F10 cells", "conditions": "150 mg/kg; 14 days after inoculation; p<0.01 versus untreated controls"}, "B16 cells": {"tested_on": "B16 cells", "conditions": "200 μg/ml"}, "Cloudman S91 cells": {"tested_on": "Cloudman S91 cells", "conditions": "100 μg/ml"}, "[1]": {"assay": "not given", "remark": "listed apart in the source"}, "[2]": {"conditions": "dacarbazine alone, meta-analysis of 14 studies, 1167 patients"}}, "note": "Like-named read-outs stand apart in the source and are kept apart here."}
{"smiles": "NC(=O)c1nc[nH]c1N", "note": "[AIC, 5-aminoimidazol-me-4-carboxamide]", "values": [{"measurement": "time to maximal serum concentration", "setting": "after injection of dacarbazine", "result": 15, "unit": "min"}, {"measurement": "time at which detectable after intravenous injection of dacarbazine", "setting": "in vivo, iv", "result": 15, "unit": "min"}]}
{"smiles": "CN(C)N=Nc1[nH]cnc1C(N)=O", "note": "[dacarbazine, 5-(3,3-dimethyl-1-triazeno)imidazole-4-carboxamide]", "values": [{"measurement": "complete remission", "setting": "metastatic melanoma; 143 patients treated with dacarbazine alone", "result": 5, "unit": "%"}, {"measurement": "average response rates", "setting": "metastatic melanoma; contemporary trials", "result": "< 10", "unit": "%"}, {"measurement": "median progression-free survival", "setting": "metastatic melanoma; contemporary trials", "result": "≤ 2", "unit": "months"}, {"measurement": "average mean survival", "setting": "metastatic melanoma; [2]", "result": 8, "unit": "months"}, {"measurement": "average response rate", "setting": "metastatic melanoma; [2]", "result": 18.7, "unit": "%"}, {"measurement": "complete remission average rate", "setting": "metastatic melanoma; [2]", "result": 5.4, "unit": "%"}, {"measurement": "increased survival time", "setting": "melanoma B16 cells; B16 cells implanted intraperitoneally", "result": 29, "unit": "%"}, {"measurement": "increased survival time", "setting": "melanoma B16 cells; B16 cells implanted subcutaneously", "result": 43, "unit": "%"}, {"measurement": "inhibition of tumor growth", "setting": "melanoma B16 cells; intraperitoneal injection", "result": "did not inhibit tumor growth"}, {"measurement": "number of metastatic pulmonary nodules", "setting": "melanoma B16F10 cells", "result": "significantly decreased"}, {"measurement": "highest induction of apoptosis", "setting": "B16 cells", "result": 11, "unit": "%"}, {"measurement": "highest induction of apoptosis", "setting": "Cloudman S91 cells", "result": 22.2, "unit": "%"}, {"measurement": "patients developing constitutional symptoms (nausea, vomiting, occasionally diarrhea)", "setting": "[1]; in vivo", "result": 90, "unit": "%"}, {"measurement": "cytopenia grade", "setting": "[1]; white cell and platelet counts after injection", "result": "WHO grade 1 or rarely grade 2"}, {"measurement": "T50% α value relative to typical dose", "setting": "higher doses (850-1980 mg/m^2)", "result": 3.5, "unit": "fold"}, {"measurement": "injected dose crossing the blood-brain barrier", "setting": "in vivo", "result": 13, "unit": "%"}, {"measurement": "protein binding", "setting": "in vivo", "result": "binds weakly to proteins"}, {"measurement": "secretion in breast milk", "setting": "in vivo", "result": "secreted in breast milk"}, {"measurement": "volume of distribution", "setting": "in vivo", "result": "exceeds the water volume of the body"}, {"measurement": "bioavailable fraction", "setting": "intravenously injected", "result": "50-60%"}, {"measurement": "fraction of an oral dose absorbed", "setting": "oral administration", "result": "14-23%"}, {"measurement": "renal clearance", "setting": "regardless of the dose injected", "result": "exceeds creatinine clearance"}]}
